{"source": "PubChem BioAssay AID1259407", "about": "(Chemical Carcinogenesis Research Information System (CCRIS), 2018)", "test_system": "CCRIS mutagenicity, Ames/micronucleus/aberration tests", "experiment": "CCRIS mutagenicity studies", "key": {"[1]": {"settings": "Test System: AMES SALMONELLA TYPHIMURIUM, Strain/Indicator: TA98, Metabolic Activation: NONE, Method: PREINCUBATION"}, "[2]": {"settings": "Test System: AMES SALMONELLA TYPHIMURIUM, Strain/Indicator: TA100, Metabolic Activation: NONE, Method: PREINCUBATION"}, "[3]": {"settings": "Test System: AMES SALMONELLA TYPHIMURIUM, Strain/Indicator: TA1535, Metabolic Activation: NONE, Method: PREINCUBATION"}, "[4]": {"settings": "Test System: AMES SALMONELLA TYPHIMURIUM, Strain/Indicator: TA1537, Metabolic Activation: NONE, Method: PREINCUBATION"}}, "note": "Activity calls are given as the source filed them. How the calls were made is not given here."}
{"smiles": "CCCCCCCC/C=C/CCCCCCCC(=O)OCCOCC(OCCO)C1OCC(OCCO)C1OCCO", "note": "(configuration not stated)", "values": [{"measurement": "mutagenic call", "setting": "Test System: AMES SALMONELLA TYPHIMURIUM, Strain/Indicator: TA98, Metabolic Activation: HAMSTER, LIVER, S-9, AROCLOR 1254 (10%), Method: PREINCUBATION", "result": "inactive; negative"}, {"measurement": "mutagenic call", "setting": "[1]", "result": "inactive; negative"}, {"measurement": "mutagenic call", "setting": "Test System: AMES SALMONELLA TYPHIMURIUM, Strain/Indicator: TA98, Metabolic Activation: RAT, LIVER, S-9, AROCLOR 1254 (10%), Method: PREINCUBATION", "result": "inactive; negative"}, {"measurement": "mutagenic call", "setting": "Test System: AMES SALMONELLA TYPHIMURIUM, Strain/Indicator: TA100, Metabolic Activation: HAMSTER, LIVER, S-9, AROCLOR 1254 (10%), Method: PREINCUBATION", "result": "inactive; negative"}, {"measurement": "mutagenic call", "setting": "[2]", "result": "inactive; negative"}, {"measurement": "mutagenic call", "setting": "Test System: AMES SALMONELLA TYPHIMURIUM, Strain/Indicator: TA100, Metabolic Activation: RAT, LIVER, S-9, AROCLOR 1254 (10%), Method: PREINCUBATION", "result": "inactive; negative"}, {"measurement": "mutagenic call", "setting": "Test System: AMES SALMONELLA TYPHIMURIUM, Strain/Indicator: TA1535, Metabolic Activation: HAMSTER, LIVER, S-9, AROCLOR 1254 (10%), Method: PREINCUBATION", "result": "inactive; negative"}, {"measurement": "mutagenic call", "setting": "[3]", "result": "inactive; negative"}, {"measurement": "mutagenic call", "setting": "Test System: AMES SALMONELLA TYPHIMURIUM, Strain/Indicator: TA1535, Metabolic Activation: RAT, LIVER, S-9, AROCLOR 1254 (10%), Method: PREINCUBATION", "result": "inactive; negative"}, {"measurement": "mutagenic call", "setting": "Test System: AMES SALMONELLA TYPHIMURIUM, Strain/Indicator: TA1537, Metabolic Activation: HAMSTER, LIVER, S-9, AROCLOR 1254 (10%), Method: PREINCUBATION", "result": "inactive; negative"}, {"measurement": "mutagenic call", "setting": "[4]", "result": "inactive; negative"}, {"measurement": "mutagenic call", "setting": "Test System: AMES SALMONELLA TYPHIMURIUM, Strain/Indicator: TA1537, Metabolic Activation: RAT, LIVER, S-9, AROCLOR 1254 (10%), Method: PREINCUBATION", "result": "inactive; negative"}]}
{"smiles": "CCN(Cc1ccccc1)c1ccccc1", "values": [{"measurement": "mutagenic call", "setting": "Test System: AMES SALMONELLA TYPHIMURIUM, Strain/Indicator: TA97, Metabolic Activation: HAMSTER, LIVER, S-9, AROCLOR 1254 (10 OR 30%), Method: PREINCUBATION", "result": "inactive; negative"}, {"measurement": "mutagenic call", "setting": "Test System: AMES SALMONELLA TYPHIMURIUM, Strain/Indicator: TA97, Metabolic Activation: NONE, Method: PREINCUBATION", "result": "inactive; negative"}, {"measurement": "mutagenic call", "setting": "Test System: AMES SALMONELLA TYPHIMURIUM, Strain/Indicator: TA97, Metabolic Activation: RAT, LIVER, S-9, AROCLOR 1254 (10 OR 30%), Method: PREINCUBATION", "result": "inactive; negative"}, {"measurement": "mutagenic call", "setting": "Test System: AMES SALMONELLA TYPHIMURIUM, Strain/Indicator: TA98, Metabolic Activation: HAMSTER, LIVER, S-9, AROCLOR 1254 (10 OR 30%), Method: PREINCUBATION", "result": "inactive; negative"}, {"measurement": "mutagenic call", "setting": "[1]", "result": "inactive; negative"}, {"measurement": "mutagenic call", "setting": "Test System: AMES SALMONELLA TYPHIMURIUM, Strain/Indicator: TA98, Metabolic Activation: RAT LIVER S-9, PHENOBARBITAL AND BETA-NAPHTHOFLAVONE, Method: PREINCUBATION", "result": "inactive; negative"}, {"measurement": "mutagenic call", "setting": "Test System: AMES SALMONELLA TYPHIMURIUM, Strain/Indicator: TA98, Metabolic Activation: RAT, LIVER, S-9, AROCLOR 1254 (10 OR 30%), Method: PREINCUBATION", "result": "inactive; negative"}, {"measurement": "mutagenic call", "setting": "Test System: AMES SALMONELLA TYPHIMURIUM, Strain/Indicator: TA100, Metabolic Activation: HAMSTER, LIVER, S-9, AROCLOR 1254 (10 OR 30%), Method: PREINCUBATION", "result": "inactive; negative"}, {"measurement": "mutagenic call", "setting": "[2]", "result": "inactive; negative"}, {"measurement": "mutagenic call", "setting": "Test System: AMES SALMONELLA TYPHIMURIUM, Strain/Indicator: TA100, Metabolic Activation: RAT LIVER S-9, PHENOBARBITAL AND BETA-NAPHTHOFLAVONE, Method: PREINCUBATION", "result": "inactive; negative"}, {"measurement": "mutagenic call", "setting": "Test System: AMES SALMONELLA TYPHIMURIUM, Strain/Indicator: TA100, Metabolic Activation: RAT, LIVER, S-9, AROCLOR 1254 (10 OR 30%), Method: PREINCUBATION", "result": "inactive; negative"}, {"measurement": "mutagenic call", "setting": "Test System: AMES SALMONELLA TYPHIMURIUM, Strain/Indicator: TA1535, Metabolic Activation: HAMSTER, LIVER, S-9, AROCLOR 1254 (10 OR 30%), Method: PREINCUBATION", "result": "inactive; negative"}, {"measurement": "mutagenic call", "setting": "[3]", "result": "inactive; negative"}, {"measurement": "mutagenic call", "setting": "Test System: AMES SALMONELLA TYPHIMURIUM, Strain/Indicator: TA1535, Metabolic Activation: RAT LIVER S-9, PHENOBARBITAL AND BETA-NAPHTHOFLAVONE, Method: PREINCUBATION", "result": "inactive; negative"}, {"measurement": "mutagenic call", "setting": "Test System: AMES SALMONELLA TYPHIMURIUM, Strain/Indicator: TA1535, Metabolic Activation: RAT, LIVER, S-9, AROCLOR 1254 (10 OR 30%), Method: PREINCUBATION", "result": "inactive; negative"}, {"measurement": "mutagenic call", "setting": "[4]", "result": "inactive; negative"}, {"measurement": "mutagenic call", "setting": "Test System: AMES SALMONELLA TYPHIMURIUM, Strain/Indicator: TA1537, Metabolic Activation: RAT LIVER S-9, PHENOBARBITAL AND BETA-NAPHTHOFLAVONE, Method: PREINCUBATION", "result": "inactive; negative"}, {"measurement": "mutagenic call", "setting": "Test System: AMES SALMONELLA TYPHIMURIUM, Strain/Indicator: TA1538, Metabolic Activation: NONE, Method: PREINCUBATION", "result": "inactive; negative"}, {"measurement": "mutagenic call", "setting": "Test System: AMES SALMONELLA TYPHIMURIUM, Strain/Indicator: TA1538, Metabolic Activation: RAT LIVER S-9, PHENOBARBITAL AND BETA-NAPHTHOFLAVONE, Method: PREINCUBATION", "result": "inactive; negative"}, {"measurement": "mutagenic call", "setting": "Test System: E.COLI, Strain/Indicator: WP2UVRA, Metabolic Activation: NONE, Method: PREINCUBATION", "result": "inactive; negative"}, {"measurement": "mutagenic call", "setting": "Test System: E.COLI, Strain/Indicator: WP2UVRA, Metabolic Activation: RAT LIVER S-9, PHENOBARBITAL AND BETA-NAPHTHOFLAVONE, Method: PREINCUBATION", "result": "inactive; negative"}]}
{"smiles": "CCOC(=O)c1[nH]c2ccccc2c1N=Cc1cc(OC)c(OC)c(OC)c1", "values": [{"measurement": "mutagenic call", "setting": "Test System: AMES SALMONELLA TYPHIMURIUM, Strain/Indicator: TA97, Metabolic Activation: NONE, Method: STANDARD PLATE", "result": "active; positive"}, {"measurement": "mutagenic call", "setting": "Test System: AMES SALMONELLA TYPHIMURIUM, Strain/Indicator: TA97, Metabolic Activation: RAT, LIVER, S-9, AROCLOR 1254, Method: STANDARD PLATE", "result": "inactive; negative"}, {"measurement": "mutagenic call", "setting": "Test System: AMES SALMONELLA TYPHIMURIUM, Strain/Indicator: TA98, Metabolic Activation: NONE, Method: STANDARD PLATE", "result": "inactive; negative"}, {"measurement": "mutagenic call", "setting": "Test System: AMES SALMONELLA TYPHIMURIUM, Strain/Indicator: TA98, Metabolic Activation: RAT, LIVER, S-9, AROCLOR 1254, Method: STANDARD PLATE", "result": "inactive; negative"}, {"measurement": "mutagenic call", "setting": "Test System: AMES SALMONELLA TYPHIMURIUM, Strain/Indicator: TA100, Metabolic Activation: NONE, Method: STANDARD PLATE", "result": "inactive; negative"}, {"measurement": "mutagenic call", "setting": "Test System: AMES SALMONELLA TYPHIMURIUM, Strain/Indicator: TA100, Metabolic Activation: RAT, LIVER, S-9, AROCLOR 1254, Method: STANDARD PLATE", "result": "inactive; negative"}, {"measurement": "mutagenic call", "setting": "Test System: AMES SALMONELLA TYPHIMURIUM, Strain/Indicator: TA102, Metabolic Activation: NONE, Method: STANDARD PLATE", "result": "inactive; negative"}, {"measurement": "mutagenic call", "setting": "Test System: AMES SALMONELLA TYPHIMURIUM, Strain/Indicator: TA102, Metabolic Activation: RAT, LIVER, S-9, AROCLOR 1254, Method: STANDARD PLATE", "result": "inactive; negative"}]}
{"smiles": "ClCc1c2ccccc2c(CCl)c2ccccc12", "values": [{"measurement": "mutagenic call", "setting": "Test System: AMES SALMONELLA TYPHIMURIUM, Strain/Indicator: TA1537, Metabolic Activation: NONE, Method: STANDARD PLATE", "result": "active; positive"}]}
